# Laboratory results published in US10174038B2, “Compounds and methods for antiviral treatment” (Gilead Sciences, Inc., priority 2012, dated 2019).
# Tested on: RSV strain A2
# Assay: RSV antiviral activity, in vitro cytoprotection assay in Hep2 cells
# Type: cell-based, Respiratory Syncytial Virus (RSV)
# Conditions: human respiratory syncytial virus, HEp-2; 0.5 μM compound; RSV-induced cytopathic effect in Hep2 cells; % inhibition calculated from fitted 4-parameter dose response curve, normalized to 0% and 100%; read-out: Percent inhibition at 0.5 μM
# Procedure: Antiviral activity against RSV was determined using an in vitro cytoprotection assay in Hep2 cells. […] The method used was similar to methods previously described in published literature (Chapman et al., Antimicrob Agents Chemother. 2007, 51(9):3346-53.)
# Hep2 cells were obtained from ATCC (Manassas, Va.) and maintained in MEM media supplemented with 10% fetal bovine serum and penicillin/streptomycin. Cells were passaged twice a week and kept at subconfluent stage. Commercial stock of RSV strain A2 (Advanced Biotechnologies, Columbia, Md.) was titered before compound testing to determine the appropriate dilution of the virus stock that generated desirable cytopathic effect in Hep2 cells.
# For antiviral tests, Hep2 cells were seeded into 96-well plates 24 hours before the assay at a density of 3,000 cells/well. On a separate 96 well plate, compounds to be tested were serially diluted in cell culture media. Eight concentrations in 3-fold serial dilution increments were prepared for each tested compound and 100 uL/well of each dilution was transferred in duplicate onto plates with seeded Hep2 cells. Subsequently, appropriate dilution of virus stock previously determined by titration was prepared in cell culture media and 100 uL/well was added to test plates containing cells and serially diluted compounds. Each plate included three wells of infected untreated cells and three wells of uninfected cells that served as 0% and 100% virus inhibition control, respectively. Following the infection with RSV, testing plates were incubated for 4 days in a tissue culture incubator. After the incubation, RSV-induced cytopathic effect was determined using a Cell TiterGlo reagent (Promega, Madison, Wis.) followed by a luminescence read-out. The percentage inhibition was calculated for each tested concentration relative to the 0% and 100% inhibition controls and the EC50 value for each compound was determined by non-linear regression as a concentration inhibiting the RSV-induced cytopathic effect by 50%. Ribavirin (purchased from Sigma, St. Louis, Mo.) was used as a positive control for antiviral activity.
# Compounds were also tested for antiviral activity against RSV in Hep2 cells using a 384 well format. Compounds were diluted in DMSO using a 10-step serial dilution in 3-fold increments via automation in 4 adjacent replicates each. Eight compounds were tested per dilution plate. 0.4 uL of diluted compounds were then stamped via Biomek into 384-well plates (Nunc 142761 or 164730 w/lid 264616) containing 20 μL of media (Mediatech Inc. MEM supplemented with Glutamine, 10% FBS and Pen/Strep). DMSO and a suitable positive control compound, such as 80 μM GS-329467 or 10 μM 427346 was used for the 100% and 0% cell killing controls, respectively.
# Hep2 cells (1.0×10^5 cells/ml) were prepared as above in batch to at least 40 mls excess of the number of sample plates (8 mls cell mix per plate) and infected with vendor supplied (ABI) RSV strain A2 to arrive at an MOI of 1:1000 (virus:cell #) or 1:3000 (vol virus:cell vol). Immediately after addition of virus, the RSV infected Hep2 cell suspension was added to each stamped 384-well plate at 20 μl per well using a uFlow dispenser, giving a final volume of 40 μL/well, each with 2000 infected cells. The plates were then incubated for 5 days at 37° C. and 5% CO2. Following incubation, the plates were equilibrated to room temperature in a biosafety cabinet hood for 1.5 hrs and 40 μL of Cell-Titer Glo viability reagent (Promega) was added to each well via uFlow. Following a 10-20 minute incubation, the plates were read using an EnVision or Victor Luminescence plate reader (Perkin-Elmer). The data was then uploaded and analyzed on the Bioinformatics portal under the RSV Cell Infectivity and 8-plate EC50-Hep2-384 or 8-plate EC50-Hep2-Envision protocols. […]
row,Compound,inhibition at 0.5 µM [%]
1,Cc1cc(C2CC2)nc2cc([C@@H]3CCCCN3C(=O)c3cc(F)ccc3NS(C)(=O)=O)nn12 [Compound 75],100
2,CNc1c(C)c(C)nc2cc([C@@H]3CCCCN3C(=O)c3cc(Cl)cc(C)c3NS(C)(=O)=O)nn12 [Compound 25],97
3,Cc1cn2nc([C@@H]3CCCCN3C(=O)c3cc(Cl)ccc3NC(=O)C(F)F)cc2nc1N1CC[C@H](N)C1 [Compound 65],100
4,Cc1cn2nc([C@@H]3CCCCN3C(=O)c3cc(Cl)ccc3NS(C)(=O)=O)cc2nc1N1CC(F)(F)C1 [Compound 98],100
5,Cc1cn2nc([C@@H]3CCCCN3C(=O)C(NS(C)(=O)=O)c3ccccc3Cl)cc2nc1N1CC[C@H](N)C1 (stereo partly shown) [Compound 34],100
6,Cc1cn2nc([C@@H]3CCCCN3C(=O)c3cc(Cl)ccc3NS(C)(=O)=O)cc2nc1N1CC[C@H](CN)C1 [Compound 21],100
7,CN(C)[C@@H]1CCN(c2cc(N3CCC3)nc3cc([C@@H]4CCCCN4C(=O)c4cc(Cl)ccc4NS(C)(=O)=O)nn23)C1 [Compound 72],100
8,CS(=O)(=O)Nc1ccc(Cl)cc1C(=O)N1CCCC[C@H]1c1cc2nc(N3CC(CO)C3)cc(N3CCOCC3)n2n1 [Compound 89],90
9,CS(=O)(=O)Nc1ccc(Cl)cc1C(=O)N1CCCC[C@H]1c1cc2nc(C3CCCC3)cc(N3CCOCC3)n2n1 [Compound 57],93
10,Cc1cn2nc([C@@H]3CCCCN3C(=O)c3cc(Cl)ccc3CNS(C)(=O)=O)cc2nc1N1CC[C@H](N)C1 [Compound 36],100
11,Cc1cc2nc([C@@H]3CCCCN3C(=O)C(NS(C)(=O)=O)c3ccccc3Br)cn2nc1N1CC[C@H](N)C1 (stereo partly shown) [Compound 116],100
12,Cc1cn2nc([C@@H]3CCCCN3C(=O)c3ncccc3Cl)cc2nc1N1CC[C@H](N)C1 [Compound 18],100
13,CNc1cc(N2CCOCC2)n2nc([C@@H]3CCCCN3C(=O)c3cc(Cl)ccc3NS(C)(=O)=O)cc2n1 [Compound 91],91
14,Cc1cn2nc([C@@H]3CCCCN3C(=O)C(NS(C)(=O)=O)c3ccccc3F)cc2nc1N1CC[C@H](N)C1 (stereo partly shown) [Compound 100],100
15,COC(=O)N[C@H](C(=O)N1CCCC[C@H]1c1cc2nc(N3CC[C@H](N)C3)c(C)cn2n1)C1CC1 [Compound 102],99
16,CS(=O)(=O)Nc1ccc(Cl)cc1C(=O)N1CCCC[C@H]1c1cc2nc(N3CC[C@@H](F)C3)cc(N3CCOCC3)n2n1 [Compound 93],56
17,CS(=O)(=O)Nc1ccc(Cl)cc1C(=O)N1CCCC[C@H]1c1cc2nc(C3CC3)ccn2n1 [Compound 85],86
18,CC(C)OC(=O)Nc1ccc(Cl)cc1C(=O)N1CCCC[C@H]1c1cc2nc(N3CCC3)cc(N3CCN(C(=O)OC(C)(C)C)CC3)n2n1 [Compound 68],100
19,CS(=O)(=O)Nc1ccc(Cl)cc1C(=O)N1CCCC[C@H]1c1cc2nc(N3CCCC3)cc(N3CCOCC3)n2n1 [Compound 90],100
20,CS(=O)(=O)Nc1ccc(Cl)cc1C(=O)N1CCCC[C@H]1c1cn2nc(N3CCC3)ccc2n1 [Compound 106],100
21,Cc1nc2cc([C@@H]3CCCCN3C(=O)c3cc(F)ccc3NS(C)(=O)=O)nn2c(C)c1C [Compound 58],89
22,Cc1cn2nc([C@@H]3CCCCN3C(=O)c3cc(Cl)ccc3NS(C)(=O)=O)cc2nc1N[C@@H](C)CO [Compound 2],97
23,Cc1cn2nc([C@@H]3CCCCN3C(=O)c3cccc(C(F)(F)F)n3)cc2nc1N1CC[C@H](N)C1 [Compound 67],99
24,Cc1ccc(NS(C)(=O)=O)c(C(=O)N2CCCC[C@H]2c2cc3nc(C)cc(C)n3n2)c1 [Compound 52],99
25,CS(=O)(=O)Nc1ccc(Cl)cc1C(=O)N1CCCC[C@H]1c1cc2nc(N3CCC3)cc(N3CCCC(N)C3)n2n1 (stereo partly shown) [Compound 70],100

row,Compound,inhibition at 0.5 µM [%]
1,CC1CN(c2cc(N3CCOCC3)n3nc([C@@H]4CCCCN4C(=O)c4cc(Cl)ccc4NS(C)(=O)=O)cc3n2)C1 [Compound 1],95
2,Cc1cc2nc([C@@H]3CCCCN3C(=O)c3cc(Cl)ccc3NS(C)(=O)=O)cn2nc1N1CC[C@H](N)C1 [Compound 107],100
3,CN1CCN(c2cc(N3CC(N)C3)nc3cc([C@@H]4CCCCN4C(=O)c4cc(Cl)ccc4NS(C)(=O)=O)nn23)CC1 [Compound 53],99
4,Cc1nc2cc([C@@H]3CCCCN3C(=O)c3cc(F)cc(Cl)c3NS(C)(=O)=O)nn2c(C)c1C [Compound 32],85
5,CN[C@@H]1CCN(c2cc(C)n3nc([C@@H]4CCCCN4C(=O)c4cc(Cl)ccc4NS(C)(=O)=O)cc3n2)C1 [Compound 84],95
6,Cc1cn2nc([C@@H]3CCCCN3C(=O)c3cc(Cl)ccc3NC(=O)N(C)C)cc2nc1N1CC[C@H](N)C1 [Compound 64],100
7,Cc1cn2nc([C@@H]3CCCCN3C(=O)c3cc(Cl)ccc3NS(C)(=O)=O)cc2nc1N1CCC1C (stereo partly shown) [Compound 40],100
8,Cc1cnc(N)c(C(=O)N2CCCC[C@H]2c2cc3nc(N4CC[C@H](N)C4)c(C)cn3n2)c1 [Compound 14],97
9,CC(=O)Nc1ccc(C)c(Br)c1C(=O)N1CCCC[C@H]1c1cc2nc(C)c(C)c(C)n2n1 [Compound 83],100
10,Cc1cc(N2CC[C@H](N)C2)nc2cc([C@@H]3CCCCN3C(=O)c3cc(Cl)ccc3NS(C)(=O)=O)nn12 [Compound 44],100
11,CS(=O)(=O)Nc1ccc(Cl)cc1C(=O)N1CCCC[C@H]1c1cc2nc(N3CC[C@H](O)C3)cc(N3CCOCC3)n2n1 [Compound 96],90
12,Cc1cccnc1C(=O)N1CCCC[C@H]1c1cc2nc(N3CC[C@H](N)C3)c(C)cn2n1 [Compound 6],100
13,Cc1cc(C)n2nc(C3CCCCN3C(=O)c3cc(Cl)ccc3NS(C)(=O)=O)nc2n1 (stereo not shown) [Compound 113],16
14,CC(C)OC(=O)Nc1ccc(Cl)cc1C(=O)N1CCCC[C@H]1c1cc2nc(N3CCC3)cc(N3CCNCC3)n2n1 [Compound 69],99
15,CCc1ccc(NS(C)(=O)=O)c(C(=O)N2CCCC[C@H]2c2cc3nc(C4CC4)cc(N4CCOCC4)n3n2)c1 [Compound 80],99
16,Cc1ccc(C(=O)N2CCCC[C@H]2c2cc3nc(C4CC4)cc(C)n3n2)c(NS(C)(=O)=O)c1 [Compound 76],99
17,Cc1cn2nc([C@@H]3CCCCN3C(=O)C(NS(C)(=O)=O)c3ccccc3Br)cc2nc1N1C[C@@H](C#N)[C@@H](O)C1 (stereo partly shown) [Compound 23],100
18,CS(=O)(=O)Nc1ccc(Cl)cc1C(=O)N1CCCC[C@H]1c1cc2nc(N3CCC3)cc(N3CC[C@@H](N)C3)n2n1 [Compound 71],100
19,Cc1cc(C2CC2)nc2cc([C@@H]3CCCCN3C(=O)c3cc(F)cc(Cl)c3NS(C)(=O)=O)nn12 [Compound 74],97
20,Cc1cc(C)nc(C(=O)N2CCCC[C@H]2c2cc3nc(N4CC[C@H](N)C4)c(C)cn3n2)c1 [Compound 66],100
21,CS(=O)(=O)Nc1ccc(Cl)cc1C(=O)N1CCCC[C@H]1c1cc2nc(N3CCC3)cc(N3CCNC(C#N)C3)n2n1 (stereo partly shown) [Compound 43],100
22,CS(=O)(=O)Nc1ccc(Cl)cc1C(=O)N1CCCC[C@H]1c1cc2ccc(N3CCC3)nn2c1 [Compound 111],56
23,Cc1cc(C2CC2)nc2cc([C@@H]3CCCCN3C(=O)c3ccccc3NS(C)(=O)=O)nn12 [Compound 46],97
24,CS(=O)(=O)Nc1ccc(Cl)cc1C(=O)N1CCCC[C@H]1c1cn2nc(N3CC(O)C3)ccc2n1 [Compound 120],100
